# Assays:
# [1] = test system: mice; experiment: Intraocular pressure (IOP) in mice by rebound tonometry (Tonolab); format: in vivo
# Method: IOP was measured in mice by rebound tonometry, using a Tonolab (Icare Finland Oy, Helsinki, Finland). This instrument uses a light plastic-tipped probe to briefly make contact with the cornea; after the probe encounters the eye the instrument measures the speed at which the probe rebounds in order to calculate IOP.
# (§1) To obtain reproducible IOP measurements, mice were anesthetized with isoflurane (3% induction). The anesthetized mouse was then placed on a platform in a prone position, where anesthesia was maintained with 2% isoflurane. Baseline fop measurements are taken in both eyes. A ‘measurement’ included the average value of six readings. One eye was then treated with drug (dissolved in Tocrisolve (Tocris Biosciences), a soya-based solvent, 5 μL final volume, applied topically) while the other eye was treated with vehicle. The animal was then allowed to recover. After an hour the animal was again anesthetized as above. IOP was then measured in the drug-treated and vehicle-treated contralateral eye.
# IOP measurements following drug administration were analyzed by paired t-tests comparing drug-treated eyes to contralateral vehicle-treated eyes. Where animals were injected with drug, ocular pressures of animals were compared with those of vehicle-injected animals and compared using an unpaired t-test.
# [2] = Observation of signs of irritation after 7 days of daily topical treatment; format: in vivo, mice; conditions: after the 7 days of daily treatment, SR141716 1 mM topical
# Method: as §1
# The outcome of repeated daily treatment with SR1 was tested separately. […] The IOP was also lower in the vehicle treated eye but this difference was not statistically significant.
# [3] = test system: mice; experiment: Intraocular pressure (IOP) in mice by rebound tonometry (Tonolab); format: in vivo; remark: listed apart in the source
SMILES,"IOP (mm Hg±SEM) 1 hour after intraperitoneal injection ([1]; PSNCBAM1 4 mg/kg IP, 1 hour, n=16, baseline IOP 19.6±0.4, p<0.005, FIG. 3B)","IOP (mm Hg±SEM) in drug-treated eye after topical treatment ([1]; PSNCBAM1 5 mM topical, WT mice, n=8, not significant vs vehicle-treated eye 17.4±0.7, FIG. 3A)","Effect of intraperitoneal injection on ocular pressure ([1]; intraperitoneal injection, FIG. 3B)","Effect of topical treatment on ocular pressure relative to the contralateral eye ([1]; topical, WT mice, FIG. 3A)",Signs of irritation [2],"Δ IOP±SEM, effect in drug-treated eye after seven days of daily treatment ([1]; SR141716 1 mM topical, 7th day of daily treatment, n=8, p<0.005, FIG. 4C)","Δ IOP±SEM, effect at 1 day in drug-treated eye ([1]; SR141716 1 mM topical, day 1 of daily treatment, n=8, FIG. 4C)","Effect on intraocular pressure at midday, standard light cycle ([1]; SR141716 1 mM, midday, mice in standard light cycle, FIG. 1B)","Effect on intraocular pressure at midnight, reverse light cycle ([1]; SR141716 1 mM, midnight, mice in reverse light cycle)","Effect of daily treatments on ocular pressure ([1]; daily treatments over 7 days, FIG. 2C)","Δ IOP±SEM, drug-treated eye before 7th treatment (24 hours after 6th daily treatment) ([3]; SR141716 1 mM topical daily, 7 days, drug-treated eye, n=8, p<0.05, FIG. 4B)","Δ IOP±SEM, effect at 24 hrs after a single treatment ([3]; SR141716 1 mM topical, single treatment, 24 hrs, n=16, FIG. 4A)","Δ IOP±SEM, effect at 48 hrs after a single treatment ([3]; SR141716 1 mM topical, single treatment, 48 hrs, n=16, p<0.005, FIG. 4A)"
"O=C(Nc1ccc(Cl)cc1)Nc1cccc(-c2cccc(N3CCCC3)n2)c1 [PSNCBAM1, 1-(4-chlorophenyl)-3-(3-(6-(pyrrolidin-1-yl)pyridin-2-yl)phenyl)urea]",17.3±0.5 mm Hg,18.0±0.6 mm Hg,lowered ocular pressure,did not lower ocular pressure,–,–,–,–,–,–,–,–,–
"Cc1c(C(=O)NN2CCCCC2)nn(-c2ccc(Cl)cc2Cl)c1-c1ccc(Cl)cc1 [SR141716, 5-(4-Chlorophenyl)-1-(2,4-dichloro-phenyl)-4-methyl-N-(piperidin-1-yl)-1H-pyrazole-3-carboxamide]",–,–,–,–,No signs of irritation were observed,−4.6±0.9 mm Hg,−2.8±0.6 mm Hg,raised intraocular pressure,reduced intraocular pressure,sustained lower ocular pressure,−2.9±1.0 mm Hg,−0.3±0.3 mm Hg,+2.0±0.6 mm Hg
